In US10098883B2, “(Aza)pyridopyrazolopyrimidinones and indazolopyrimidinones and their use” (BAYER PHARMA AKTIENGESELLSCHAFT, priority 2013, dated 2018):
Structures can show the parent of a compound that is named as a salt.

What follows are compounds tested on clot lysis (fibrinolysis) in human citrated plasma, tPA-induced (assay: Plasma-based clot lysis assay (5%)). Conditions: diluted human citrated plasma (platelet-poor, 5%), fibrinogen 3 μM, CaCl2 10 mM, tPA 0.2 nM, 37° C., OD 405 nm.
Format: biochemical
Experimental: B-2. Plasma-based Clot Lysis Assay (5%)
The clot-lysis test system configures the kinetics of clot formation and degradation in vitro and allows quantifying modulation of the process by selected test compounds.
The test compounds were dissolved in 1% acetic acid and further complemented with an equal volume of DMSO. The resulting stock solutions were serially diluted in 0.5% acetic acid/50% DMSO. 1 μL aliquots of these solutions were placed into 384 well microplates (Greiner, black, transparent bottom), followed by 30 μL of diluted human citrated plasma (platelet-poor, final concentration: 5%; supplemented with fibrinogen, final concentration: 3 μM; dilution buffer: 20 mM HEPES, 150 mM NaCl, 0.01% Brij (pH 7)). The reactions were started by addition of […] of CaCl2 (final concentration: 10 mM), and tPA (tissue plasminogen activator, final concentration: 0.2 nM) in dilution buffer, followed by an additional volume of 20 μL dilution buffer for improved mixing. The reactions were incubated at 37° C. Clot formation and degradation was monitored spectrophotometrically by kinetic optical density measurements at 405 nm. IC50 values were determined by comparing the resulting time courses with the time course of a blank control reaction.

IC50 [nM]	SMILES
15	CC(C)Oc1cccc2nn3c(C4CCNCC4)cc(=O)[nH]c3c12 [Example 76, 10-Isopropoxy-4-(piperidin-4-yl)pyrimido[1,2-b]indazol-2(1H)-one hydrochloride]
22	Cc1nnc2nn3c(C4CCNCC4)cc(=O)[nH]c3c2c1C [Example 17, 3,4-Dimethyl-8-(piperidin-4-yl)pyrimido[1′,2′:1,5]pyrazolo[3,4-c]pyridazin-6(5H)-one hydrochloride]
31	CC(C)(C)c1ccc2c(n1)nn1c(C3CCNCC3)cc(=O)[nH]c21 [Example 13, 8-tert-Butyl-4-(piperidin-4-yl)pyrido[2′,3′:3,4]pyrazolo[1,5-a]pyrimidin-2(1H)-one hydrochloride]
35	CC1CC(c2cc(=O)[nH]c3c4c(Cl)cccc4nn23)CCN1 (single isomer, unassigned; (+)) [Example 101, (+)-Cis-10-Chloro-4-(2-methylpiperidin-4-yl)pyrimido[1,2-b]indazol-2(1H)-one hydrochloride [Enantiomerically Pure Cis-Isomer]]
34	O=c1cc(C2CCNCC2)n2nc3cccc(OCC(F)(F)F)c3c2[nH]1 [Example 107, 4-(piperidin-4-yl)-10-(2,2,2-trifluoroethoxy)pyrimido[1,2-b]indazol-2(1H)-one hydrochloride]
18	CC(C)c1cccc2nn3c(C4CCNCC4)cc(=O)[nH]c3c12 [Example 62, 10-Isopropyl-4-(piperidin-4-yl)pyrimido[1,2-b]indazol-2(1H)-one hydrochloride]
44	O=c1cc(C2CCNCC2)n2nc3cccc(OC(F)(F)F)c3c2[nH]1 [Example 37, 4-(Piperidin-4-yl)-10-(trifluoromethoxy)pyrimido[1,2-b]indazol-2(1H)-one hydrochloride]
33	O=c1cc(C2CCNCC2)n2nc3c(F)cccc3c2[nH]1 [Example 28, 7-Fluoro-4-(piperidin-4-yl)pyrimido[1,2-b]indazol-2(1H)-one hydrochloride]
20	O=c1cc(C2CCNCC2)n2nc3cccc(-c4ccccn4)c3c2[nH]1 [Example 82, 4-(Piperidin-4-yl)-10-(pyridin-2-yl)pyrimido[1,2-b]indazol-2(1H)-one hydrochloride]
20	Cc1ccc2nn3c(C4CCNCC4)cc(=O)[nH]c3c2c1Cl [Example 69, 10-Chloro-9-methyl-4-(piperidin-4-yl)pyrimido[1,2-b]indazol-2(1H)-one hydrochloride]
14	O=c1cc(C2CCNCC2)n2nc3cccc(-c4ccc(C(F)(F)F)cc4)c3c2[nH]1 [Example 55, 4-(Piperidin-4-yl)-10-[4-(trifluoromethyl)phenyl]pyrimido[1,2-b]indazol-2(1H)-one hydrochloride]
25	COc1ccccc1-c1cccc2nn3c(C4CCNCC4)cc(=O)[nH]c3c12 [Example 65, 10-(2-Methoxyphenyl)-4-(piperidin-4-yl)pyrimido[1,2-b]indazol-2(1H)-one hydrochloride]
38	CN(C)c1ccnc2nn3c(C4CCNCC4)cc(=O)[nH]c3c12 [Example 40, 10-(Dimethylamino)-4-(piperidin-4-yl)pyrido[2′,3′:3,4]pyrazolo[1,5-a]pyrimidin-2(1H)-one hydrochloride]
14	C[C@H]1C[C@H](c2cc(=O)[nH]c3c4c(Br)cccc4nn23)CCN1 [Example 50, (−)-trans-10-Bromo-4-(2-methylpiperidin-4-yl)pyrimido[1,2-b]indazol-2(1H)-one hydrochloride]
18	Cc1cccc2nn3c(C4CCNCC4)cc(=O)[nH]c3c12 [Example 36, 10-Methyl-4-(piperidin-4-yl)pyrimido[1,2-b]indazol-2(1H)-one hydrochloride]
16	O=c1cc(C2CCNCC2)n2nc3cc(F)cc(Br)c3c2[nH]1 [Example 81, 10-Bromo-8-fluoro-4-(piperidin-4-yl)pyrimido[1,2-b]indazol-2(1H)-one hydrochloride]
30	O=c1cc(C2CCNCC2)n2nc3ccc(C(F)(F)F)cc3c2[nH]1 [Example 2, 4-(Piperidin-4-yl)-9-(trifluoromethyl)pyrimido[1,2-b]indazol-2(1H)-one hydrochloride]
18	O=c1cc(C2CCNCC2)n2nc3cccc(-c4ccccc4OC(F)(F)F)c3c2[nH]1 [Example 80, 4-(Piperidin-4-yl)-10-[2-(trifluoromethoxy)phenyl]pyrimido[1,2-b]indazol-2(1H)-on hydrochloride]
16	Cc1ccc(Br)c2c1nn1c(C3CCNCC3)cc(=O)[nH]c21 [Example 75, 10-Bromo-7-methyl-4-(piperidin-4-yl)pyrimido[1,2-b]indazol-2(1H)-one hydrochloride]
28	O=c1cc(C2CCNCC2)n2nc3cnccc3c2[nH]1 [Example 29, 4-(Piperidin-4-yl)pyrido[3′,4′:3,4]pyrazolo[1,5-a]pyrimidin-2(1H)-one hydrochloride]
28	CCOc1ccccc1-c1cccc2nn3c(C4CCNCC4)cc(=O)[nH]c3c12 [Example 93, 10-(2-Ethoxyphenyl)-4-(piperidin-4-yl)pyrimido[1,2-b]indazol-2(1H)-one hydrochloride]
35	O=c1cc(C2CCNCC2)n2nc3ccc(F)c(Br)c3c2[nH]1 [Example 70, 10-Bromo-9-fluoro-4-(piperidin-4-yl)pyrimido[1,2-b]indazol-2(1H)-one hydrochloride]

Same assay, conditions: diluted human citrated plasma (platelet-poor, 5%), fibrinogen 3 μM, CaCl2 10 mM, tPA 0.2 nM, 37° C., OD 405 nm; hydrochloride

IC50 [nM]	SMILES
13	O=c1cc(C2CCNCC2)n2nc3cccc(-c4ccccc4F)c3c2[nH]1 [Example 57, 10-(2-Fluorophenyl)-4-(piperidin-4-yl)pyrimido[1,2-b]indazol-2(1H)-one hydrochloride]
14	O=c1cc(C2CCNCC2)n2nc3cccc(Br)c3c2[nH]1 [Example 60, 10-Bromo-4-(piperidin-4-yl)pyrimido[1,2-b]indazol-2(1H)-one hydrochloride]
34	O=c1cc(C2CCNCC2)n2nc3cccc(Br)c3c2[nH]1 [Example 10, 10-Bromo-4-(piperidin-4-yl)pyrimido[1,2-b]indazol-2(1H)-one hydrochloride]
28	O=c1cc(C2CCNCC2)n2nc3cccc(Cl)c3c2[nH]1 [Example 3, 10-Chloro-4-(piperidin-4-yl)pyrimido[1,2-b]indazol-2(1H)-one hydrochloride]
